Experimental data: US11053196B2, “Substituted indoline derivatives as dengue viral replication inhibitors” (JANSSEN PHARMACEUTICALS, INC., priority 2017, dated 2021)
pEC50: −log10 of the molar value.

Columns and labels:
DENV-2 16681 strain = assay: DENV-2 antiviral assay (eGFP-labeled virus in Vero cells); type: cell-based, Dengue virus; conditions: DENV-2 16681 eGFP, MOI 0.5, 3 days
Method: The antiviral activity of all the compounds of the invention was tested against the DENV-2 16681 strain which was labeled with enhanced green fluorescent protein (eGPF). The culture medium consists of minimal essential medium supplemented with 2% of heat-inactivated fetal calf serum, 0.04% gentamycin (50 mg/mL) and 2 mM of L-glutamine. Vero cells, obtained from ECACC, were suspended in culture medium and 25 μL was added to 384-well plates (2500 cells/well), which already contain the antiviral compounds. Typically, these plates contain a 5-fold serial dilution of 9 dilution steps of the test compound at 200 times the final concentration in 100% DMSO (200 nL). […] Finally, each plate contains wells which are assigned as virus controls (containing cells and virus in the absence of compound), cell controls (containing cells in the absence of virus and compound) and medium controls (containing medium in the absence of cells, virus and compounds). To the wells assigned as medium control, 25 μL of culture medium was added instead of Vero cells. Once the cells are added to the plates, the plates were incubated for 30 minutes at room temperature to allow the cells to distribute evenly within the wells. Next, the plates were incubated in a fully humidified incubator (37° C., 5% CO2) until the next day. Then, DENV-2 strain 16681, labeled with eGFP, was added at a multiplicity of infection (MOI) of 0.5.
Therefore, 15 μL of virus suspension was added to all the wells containing test compound and to the wells assigned as virus control. In parallel, 15 μL of culture medium was added to the medium and cell controls. Next, the plates were incubated for 3 days in a fully humidified incubator (37° C., 5% CO2). At the day of the read out, the eGFP fluorescence was measured using an automated fluorescence microscope at 488 nm (blue laser). Using an in-house LIMS system, inhibition dose response curves for each compound were calculated and the half maximal effective concentration (EC50) was determined. Therefore, the percent inhibition (I) for every test concentration is calculated using the following formula: I=100*(ST−SCC)/(SVC−SCC); ST, SCC and SVC are the amount of eGFP signal in the test compound, cell control and virus control wells, respectively. The EC50 represents the concentration of a compound at which the virus replication is inhibited with 50%, as measured by a 50% reduction of the eGFP fluorescent intensity compared to the virus control. The EC50 is calculated using linear interpolation (Table 1).

in vitro = conditions: African green monkey
[1] = Dengue virus, DENV2, Vero, 72 h

For `COc1cc(NC(C(=O)N2CCc3cc(F)c(OC(F)(F)F)cc32)c2ccc(Cl)cc2)cc(OCCCC(=O)O)c1` (single isomer, unassigned) [Compound 5A, 4-(3-((1-(4-chlorophenyl)-2-(5-fluoro-6-(trifluoromethoxy)indolin-1-yl)-2-oxoethyl)amino)-5-methoxyphenoxy)butanoic acid], the pEC50 (DENV-2 16681 strain) was 8.64 and the CC50 (in vitro) was 10 µM.

In the case of `COc1cc(NC(C(=O)N2CCc3ccc(S(F)(F)(F)(F)F)cc32)c2ccc(Cl)cc2)cc(OCCCC(=O)O)c1` (single isomer, unassigned) [Compound 1A, 4-(3-((1-(4-chlorophenyl)-2-oxo-2-(6-(pentafluoro-λ^6-sulfanyl)indolin-1-yl)ethyl)amino)-5-methoxyphenoxy)butanoic acid], the pEC50 (DENV-2 16681 strain) was 8.89 and the CC50 (in vitro) was 12 µM.

`COc1cc(NC(C(=O)N2CCc3sc(C(F)(F)F)cc32)c2ccc(Cl)cc2)cc(OCCCC(=O)O)c1` (racemic) [Compound 10, 4-(3-((1-(4-chlorophenyl)-2-oxo-2-(2-(trifluoromethyl)-5,6-dihydro-4H-thieno[3,2-b]pyrrol-4-yl)ethyl)amino)-5-methoxyphenoxy)butanoic acid] gave a pEC50 (DENV-2 16681 strain; [1]) of 9.28 and a CC50 (in vitro) of 19 µM.

For `COc1cc(NC(C(=O)N2CCc3c(C)cc(C(F)(F)F)cc32)c2ccc(Cl)cc2)cc(OCCCC(=O)O)c1` (racemic) [Compound 2, 4-(3-((1-(4-chlorophenyl)-2-(4-methyl-6-(trifluoromethyl)indolin-1-yl)-2-oxoethyl)amino)-5-methoxyphenoxy)butanoic acid], the pEC50 (DENV-2 16681 strain; [1]) was 9.42 and the CC50 (in vitro) was 12 µM.

`COc1cc(NC(C(=O)N2CCc3c(C)cc(OC(F)(F)F)cc32)c2ccc(Cl)cc2)cc(OCCCC(=O)O)c1` (racemic) [Compound 4, 4-(3-((1-(4-chlorophenyl)-2-(4-methyl-6-(trifluoromethoxy)indolin-1-yl)-2-oxoethyl)amino)-5-methoxyphenoxy)butanoic acid] showed a pEC50 (DENV-2 16681 strain; [1]) of 9.96 and a CC50 (in vitro) of 12 µM.

Work on `COc1cc(NC(C(=O)N2CCc3ccc(SC(F)(F)F)cc32)c2ccc(Cl)cc2)cc(OCCCC(=O)O)c1` (racemic) [Compound 11, 4-(3-((1-(4-chlorophenyl)-2-oxo-2-(6-((trifluoromethyl)thio)indolin-1-yl)ethyl)amino)-5-methoxyphenoxy)butanoic acid] yielded a pEC50 (DENV-2 16681 strain; [1]) of 9.55 and a CC50 (in vitro) of 13 µM.

In the case of `COc1cc(NC(C(=O)N2CCc3c(C)cc(C(F)(F)F)cc32)c2ccc(Cl)cc2)cc(OCCCC(=O)O)c1` (single isomer, unassigned) [Compound 2A, 4-(3-((1-(4-chlorophenyl)-2-(4-methyl-6-(trifluoromethyl)indolin-1-yl)-2-oxoethyl)amino)-5-methoxyphenoxy)butanoic acid], the pEC50 (DENV-2 16681 strain) was 7.82 and the CC50 (in vitro) was 12 µM.

In the case of `COc1cc(NC(C(=O)N2CCc3ccc(OC(F)(F)F)cc32)c2ccc(F)cc2OC)cc(OCCCC(=O)O)c1` (racemic) [Compound 6, 4-(3-((1-(4-fluoro-2-methoxyphenyl)-2-oxo-2-(6-(trifluoromethoxy)indolin-1-yl)ethyl)amino)-5-methoxyphenoxy)butanoic acid], the pEC50 (DENV-2 16681 strain; [1]) was 9.20 and the CC50 (in vitro) was 12 µM.

With `COc1cc(NC(C(=O)N2CCc3cc(F)c(OC(F)(F)F)cc32)c2ccc(Cl)cc2)cc(OCCCC(=O)O)c1` (racemic) [Compound 5, 4-(3-((1-(4-chlorophenyl)-2-(5-fluoro-6-(trifluoromethoxy)indolin-1-yl)-2-oxoethyl)amino)-5-methoxyphenoxy)butanoic acid] the pEC50 (DENV-2 16681 strain; [1]) was 9.96 and the CC50 (in vitro) was 10 µM.

Molecule `COc1cc(NC(C(=O)N2CCc3cc(F)c(C(F)(F)F)cc32)c2ccc(Cl)cc2)cc(OCCCC(=O)O)c1` (racemic) [Compound 3, 4-(3-((1-(4-chlorophenyl)-2-(5-fluoro-6-(trifluoromethyl)indolin-1-yl)-2-oxoethyl)amino)-5-methoxyphenoxy)butanoic acid] has a pEC50 (DENV-2 16681 strain; [1]) of 9.25 and a CC50 (in vitro) of 13 µM.

With `COc1cc(NC(C(=O)N2CCc3ccc(S(F)(F)(F)(F)F)cc32)c2ccc(Cl)cc2)cc(OCCCC(=O)O)c1` (racemic) [Compound 1, 4-(3-((1-(4-chlorophenyl)-2-oxo-2-(6-(pentafluoro-λ^6-sulfanyl)indolin-1-yl)ethyl)amino)-5-methoxyphenoxy)butanoic acid] the pEC50 (DENV-2 16681 strain; [1]) was 9.19 and the CC50 (in vitro) was 13 µM.

`COc1cc(NC(C(=O)N2CCc3nc(OC)c(C(F)(F)F)cc32)c2ccc(Cl)cc2)cc(OCCCC(=O)O)c1` (racemic) [Compound 9, 4-(3-((1-(4-chlorophenyl)-2-(5-methoxy-6-(trifluoromethyl)-2,3-dihydro-1H-pyrrolo[3,2-b]pyridin-1-yl)-2-oxoethyl)amino)-5-methoxyphenoxy)butanoic acid] showed a pEC50 (DENV-2 16681 strain; [1]) of 9.00 and a CC50 (in vitro) of 12 µM.

`COc1cc(NC(C(=O)N2CCc3ccc(OC(F)(F)F)cc32)c2ccc(Cl)cc2OCCO)cc(OCCCC(=O)O)c1` (racemic) [Compound 8, 4-(3-((1-(4-chloro-2-(2-hydroxyethoxy)phenyl)-2-oxo-2-(6-(trifluoromethoxy)indolin-1-yl)ethyl)amino)-5-methoxyphenoxy)butanoic acid] showed a pEC50 (DENV-2 16681 strain; [1]) of 9.82 and a CC50 (in vitro) of 13 µM.

Molecule `COc1cc(NC(C(=O)N2CCc3ccc(OC(F)(F)F)cc32)c2ccc(F)cc2OC)cc(OCCCC(=O)O)c1` (single isomer, unassigned) [Compound 6A, 4-(3-((1-(4-fluoro-2-methoxyphenyl)-2-oxo-2-(6-(trifluoromethoxy)indolin-1-yl)ethyl)amino)-5-methoxyphenoxy)butanoic acid] has a pEC50 (DENV-2 16681 strain) of 6.60 and a CC50 (in vitro) of 11 µM.
